Assay results taken from US11926645B2, “Compounds and methods for treatment of viral infections” (priority 2020, dated 2024).
Where two headings read alike, the source gives them in different places.

Key:
in vitro [1] = conditions: human
in vitro [2] = format: in vitro ADME, Human; conditions: human, s9, pH 7.4
Description: (§1) Duplicate aliquots of test compound or positive control substrate (GS-7340) were added to S9 stock diluted with 100 mM phosphate buffered saline, pH 7.4, to obtain a protein concentration of 1.0 mg/mL. The S9 metabolic reactions were initiated by the addition of the substrates to the S9 reaction mixture to a final concentration of 2 μM. At 0, 10, 20, 30, 60 and 120 min, 25 μL aliquots of the reaction mixture were transferred to plates containing 225 μl of IS/Q solution. After quenching, the plates were centrifuged at 3000×g for 30 minutes, and 150 μL aliquots of each supernatant were diluted with 150 μL water. Aliquots (10 μL) of the diluted supernatant were analyzed on a Thermo Q-Exactive mass spectrometer as described below.
(§2) Quantification of test compounds and controls was performed by analyte/internal standard peak area ratio (PAR) values measured on a Thermo Q-Exactive mass spectrometer coupled to a Dionex UltiMate 3000 HPLC with a Leap Technologies HTC PAL autosampler. The column used was a Thermo Hypersil GOLD (1.9 μm particle size, 2.1×50 mm). Mobile phase A consisted of 0.1% (v/v) formic acid in water. Mobile phase B consisted of 0.1% (v/v) formic acid in acetonitrile. Elution of analytes was achieved by a series of linear gradients of acetonitrile in water containing 0.1% (v/v) formic acid. The mass spectrometer was calibrated on a weekly basis and mass tolerance of 5 ppm was used.

in vivo [3] = conditions: male, Balb/c, mouse, po, 24 mg/kg
in vitro [4] = format: cell-based; conditions: human; host cells A549-ACE2; read-out: CC50, A549-ACE2
Description: The cytotoxicity of compounds was determined in A549-hACE2 cells in the following manner. Compounds (200 nL) were spotted onto 384-well Grenier plates prior to seeding 5000 A549-hACE2 cells/well in a volume of 40 μL culture medium. The plates were incubated at 37° C. for 48 hours with 5% CO2. On day 2, 40 μL of CellTiter-Glo (Promega) was added and mixed 5 times.

SARS-CoV-2-Nluc viruses = test: microbe, parasite or virus in culture; format: cell-based; conditions: Severe acute respiratory syndrome coronavirus 2; host cells A549-ACE2; read-out: EC50, WA1/2020-nano luciferase
in vivo [5] = conditions: male, cynomolgus monkey, po, 5 mg/kg
Plasma stability = conditions: human
[6] = ferrets, single dose, Reference Compound A i.v. 20 mg/kg
[7] = female ferrets; oral Reference Compound A 20 mg/kg
[8] = tested on: SARS-CoV-2 SA/2020 B.1.351; test: microbe, parasite or virus in culture; format: cell-based; conditions: Severe acute respiratory syndrome coronavirus 2, Vero C1008
[9] = tested on: RSV-Fluc (Respiratory Syncytial virus strain A2 containing the firefly luciferase reporter); test: microbe, parasite or virus in culture; format: cell-based; conditions: human respiratory syncytial virus, 72 h, NHBE cells, three days
[10] = male cynomolgus monkeys; oral Reference Compound A 5 mg/kg
in vitro [11] = conditions: human, PrestoBlue
in vivo [12] = conditions: female, po, 20 mg/kg
SARS-CoV-2 WA1/2020 A = test: microbe, parasite or virus in culture; format: cell-based; conditions: Severe acute respiratory syndrome coronavirus 2, Vero C1008
[13] = male Balb/c mice; oral Reference Compound A 24 mg/kg
in vitro [14] = conditions: African green monkey
in vitro [15] = conditions: hamster
SARS-CoV-2 BZ/2021 P.1 = test: microbe, parasite or virus in culture; format: cell-based; conditions: Severe acute respiratory syndrome coronavirus 2, Vero C1008
in vitro [16] = format: in vitro ADME; conditions: s9, pH 7.4
Description: as §1, with “mM potassium” for “mM”, “phosphate buffer,” for “phosphate buffered saline,”, “of 2.4” for “of 1.0”, “At 2, 12, 25, 45, 65” for “At 0, 10, 20, 30, 60”, “and 90” for “and 120”, “150 μl,” for “150 μL”
as §2

in vivo [17] = conditions: male, Sprague-Dawley, rat, po; for AUC(0-inf): Reference Compound A AUCinf.; for Cmax: Reference Compound A Cmax
in vivo [18] = conditions: male, beagle, dog, po, 5 mg/kg
[19] = male beagle dogs; oral Reference Compound A 5 mg/kg
SARS-CoV-2 CA/2020 = test: microbe, parasite or virus in culture; format: cell-based; conditions: Severe acute respiratory syndrome coronavirus 2, Vero C1008
in vitro [20] = conditions: human; remark: listed apart in the source

N#C[C@@]1(c2ccc3c(N)ncnn23)O[C@H](CO)[C@@H](O)[C@H]1O [Reference Compound A, (2R,3R,4S,5R)-2-(4-aminopyrrolo[2,1-f][1,2,4]triazin-7-yl)-3,4-dihydroxy-5-(hydroxymethyl)tetrahydrofuran-2-carbonitrile]
CC50 (in vitro [1]): > 100000 nM | half-life at 2 μM (in vitro [2]): > 11.7 h | AUC(0-inf) (in vivo [3]): 45.1 µM·h | Cmax (in vivo [3]): 13.7 µM | CC50 (in vitro [4]): > 50000 nM | EC50 (SARS-CoV-2-Nluc viruses): 1600 nM | AUC(0-inf) (in vivo [5]): 1.86 µM·h | Cmax (in vivo [5]): 0.536 µM | half-life at 2 μM (Plasma stability): > 25 h | Reference Compound A AUClast [6]: 81.1 µM·h | Reference Compound A IV - CL [6]: 14.3 mL/min/kg | Reference Compound A t1/2 [6]: 3.4 h | Cmax ([6]; read-out: Reference Compound A Cmax): 54.2 µM | Reference Compound A F % (based on Reference Compound A mg-eq dose) [7]: 87% | EC50 [8]: 340 nM | EC50 [9]: 1970 nM | Reference Compound A F % (based on compound A mg-eq dose) [10]: 3.4% | CC50 (in vitro [11]; CC50, F2 HAE, primary HAE donor F2, 72 hours): > 100000 nM | CC50 (in vitro [11]; CC50, F3 HAE, primary HAE donor F3, 72 hours): > 100000 nM | CC50 (in vitro [11]; CC50, M2 HAE, primary HAE donor M2, 72 hours): > 100000 nM | CC50 (in vitro [11]; CC50, M6 HAE, primary HAE donor M6, 72 hours): > 100000 nM | AUC(0-inf) (in vivo [12]): 70.9 µM·h | Cmax (in vivo [12]): 11.7 µM | EC50 (SARS-CoV-2 WA1/2020 A): 680 nM | Reference Compound A F % (based on compound A mg-eq dose) [13]: 33% | CC50 (in vitro [14]): > 100000 nM | CC50 (in vitro [15]): > 100000 nM | EC50 (SARS-CoV-2 BZ/2021 P.1): 550 nM | half-life at 2 μM (in vitro [16]): 9.87 h | AUC(0-inf) (in vivo [17]; 5 mg/kg): 3.07 µM·h | Cmax (in vivo [17]; 5 mg/kg): 0.875 µM | AUC(0-inf) (in vivo [17]; 10 mg/kg): 2.36 µM·h | Cmax (in vivo [17]; 10 mg/kg): 0.578 µM | AUC(0-inf) (in vivo [18]): 83.9 µM·h | Cmax (in vivo [18]): 27.3 µM | Reference Compound A F % (based on compound A mg-eq dose) [19]: 89% | EC50 (SARS-CoV-2 CA/2020): 210 nM | CC50 (in vitro [20]): > 100000 nM
